Legend:
[1] = Acute toxicity, single oral dose in Jcl:ICR mice; type: in vivo, mouse
Method: Acute toxicity when TUS-007 was orally administered to Jcl:ICR mice (8 weeks old, female) (CLEA Japan, Inc.) in a single dose of 80 mg/kg body weight, 300 mg/kg body weight, or 1000 mg/kg body weight was evaluated.

[2] = biological target: T1, G12D mutant K-Ras protein (Homo sapiens, UniProt P01116, G12D); experiment: Degradation (knockdown) of G12D mutant K-Ras protein forcibly expressed in HeLa cells, Western blot analysis; type: cell-based; conditions: FIG. 4
T1 construct: expressed in transfected cells; host or cells: HeLa
Method: In Example 5, degradation (knockdown) of the G12D mutant K-Ras protein forcibly expressed in HeLa cells through TUS-007 was evaluated by Western blot analysis.
A plasmid expressing the G12D mutant K-Ras protein (K-Ras-G12D) was prepared, as in Example 4.
As in Example 4, the plasmid was introduced into HeLa cells to transiently overexpress a G12D mutant K-Ras protein or a DsRed protein for comparison in the cells. HeLa cells into which the plasmid had been introduced were seeded in a 24-well plate at a cell density of 4×10^4 cells/well, and then cultured under conditions of 37° C. and 5 vol % CO2 for 40 hours.
TUS-007 was added to HeLa cells as in Example 4. Furthermore, in addition to an experiment group in which a DMSO solution containing TUS-007 had been added, an experiment group in which a DMSO solution containing Ras-SOS-NH2 had been added was prepared. DMSO was used as a control.
As in Example 3, degradation of a G12D mutant K-Ras protein through TUS-007 was evaluated by Western blot analysis.

[3] = biological target: T2, SOS1 protein (Homo sapiens, UniProt Q07889); experiment: Amount of SOS1 protein in HeLa cells, Western blot analysis; type: cell-based; conditions: 48 hours after addition, vs control (DMSO), FIG. 5
T2 construct: endogenous in cells; host or cells: HeLa
T2 sequence (Q07889 1-1333): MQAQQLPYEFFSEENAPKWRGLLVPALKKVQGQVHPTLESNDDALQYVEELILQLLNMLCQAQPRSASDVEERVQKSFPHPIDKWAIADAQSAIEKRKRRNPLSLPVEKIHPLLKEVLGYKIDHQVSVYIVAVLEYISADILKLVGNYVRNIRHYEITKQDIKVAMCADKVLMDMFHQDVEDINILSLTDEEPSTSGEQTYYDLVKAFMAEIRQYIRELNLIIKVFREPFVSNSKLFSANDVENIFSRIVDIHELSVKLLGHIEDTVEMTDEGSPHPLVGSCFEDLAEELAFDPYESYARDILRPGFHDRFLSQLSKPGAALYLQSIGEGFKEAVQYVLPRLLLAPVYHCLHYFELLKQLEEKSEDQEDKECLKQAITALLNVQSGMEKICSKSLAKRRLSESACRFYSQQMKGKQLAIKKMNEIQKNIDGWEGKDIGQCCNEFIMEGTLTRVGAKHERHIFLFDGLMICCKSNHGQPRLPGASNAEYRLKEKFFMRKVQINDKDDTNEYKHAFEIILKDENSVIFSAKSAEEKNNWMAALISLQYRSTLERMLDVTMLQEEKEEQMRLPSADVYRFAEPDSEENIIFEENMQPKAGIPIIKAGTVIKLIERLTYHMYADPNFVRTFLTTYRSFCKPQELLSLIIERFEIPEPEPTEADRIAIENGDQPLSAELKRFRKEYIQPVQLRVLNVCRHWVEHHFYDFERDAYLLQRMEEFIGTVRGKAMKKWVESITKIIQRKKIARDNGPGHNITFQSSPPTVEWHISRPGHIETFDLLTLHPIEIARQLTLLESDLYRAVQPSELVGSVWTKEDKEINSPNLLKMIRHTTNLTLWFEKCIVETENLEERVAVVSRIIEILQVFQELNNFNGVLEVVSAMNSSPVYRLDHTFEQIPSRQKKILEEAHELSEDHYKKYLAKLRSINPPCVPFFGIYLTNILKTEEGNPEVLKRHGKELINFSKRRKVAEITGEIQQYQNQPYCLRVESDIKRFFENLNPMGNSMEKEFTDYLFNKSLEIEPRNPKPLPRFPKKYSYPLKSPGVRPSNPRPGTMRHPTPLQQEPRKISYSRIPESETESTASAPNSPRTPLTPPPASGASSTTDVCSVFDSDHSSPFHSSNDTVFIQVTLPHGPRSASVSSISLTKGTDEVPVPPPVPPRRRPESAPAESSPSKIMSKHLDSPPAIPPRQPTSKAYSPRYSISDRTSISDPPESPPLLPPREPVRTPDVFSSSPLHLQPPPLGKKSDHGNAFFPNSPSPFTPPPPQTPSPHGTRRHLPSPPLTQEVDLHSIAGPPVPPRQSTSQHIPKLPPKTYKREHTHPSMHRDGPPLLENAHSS

[4] = biological target: T3, G12V mutant K-Ras protein (Homo sapiens, UniProt P01116, G12V); experiment: Degradation (knockdown) of G12V mutant K-Ras protein forcibly expressed in HeLa cells, FACS analysis; type: cell-based; conditions: FIG. 3
T3 construct: expressed in transfected cells; host or cells: HeLa

[5] = tested on: SW1990 cells; experiment: Anti-tumor effect in mice subcutaneously implanted with human pancreatic cancer cells (SW1990 cells); type: in vivo, mouse; conditions: BALB/c nu/nu mice, SW1990 subcutaneous, oral 80 mg/kg once every 3 days, 7 doses, vs Vehicle; FIG. 9A
Method: In Example 10, TUS-007 was administered to mice subcutaneously implanted with human pancreatic cancer cells (SW1990 cells), and an anti-tumor effect was evaluated.
To the subcutis of T-cell deficient mice (BALB/cAJcl-nu/nu, 4 weeks old, female) (CLEA Japan, Inc.), 0.1 mL of cell suspension in which SW1990 cells were suspended in PBS so as to be 1×10^7 cells/mL was implanted using a 26-gauge injection needle (TERUMO CORPORATION).
Immediately before administration, TUS-007 was dissolved in DMSO, 0.5 mass % carboxymethyl cellulose (Code No. 039-01335, Wako Pure Chemical Industries, Ltd.) solution was added so that the concentration of DMSO became 2.5 vol %, followed by pulverization by ultrasonic treatment to prepare a suspension of TUS-007. When the tumors of mice with subcutaneously implanted SW1990 cells grew to a size of approximately 100 mm^3, the prepared TUS-007 suspension was orally administered by gavage with a gastric tube (Code No. 5202K, Fuchigami Kikai) at a dose of 80 mg/kg body weight once every 3 days for a total of 7 doses (n=6 to 9). As a control (Vehicle), 0.5 mass % carboxymethyl cellulose solution containing 2.5 vol % DMSO was administered in the same manner.
The tumor volume (mm^3) was calculated by measuring the tumor size using a caliper, and using the formula (minor axis diameter)^2×major axis diameter/2.

SMILES: CCC(C)[C@H](NC(=O)CCCCCCNC(=O)[C@H](CC(C)C)NC(=O)CNC(=O)c1cc(Cl)ccc1Cl)C(=O)Nc1ccc2[nH]c(Cc3c[nH]c4ccccc34)nc2c1 (stereo in doubt) [TUS-007]
- LD50 ([1]; single oral dose): > 1000 mg/kg body weight
- general condition of the mice (acute toxicity) ([1]; single oral dose of 80, 300 or 1000 mg/kg body weight): no abnormality in the general condition of the mice
- amount of the G12D mutant K-Ras protein (Western blot) [2]: the amount of the G12D mutant K-Ras protein was reduced in a concentration-dependent manner
- amount of the SOS1 protein (Western blot) [3]: the amount of the SOS1 protein was not reduced
- degradation of the G12V mutant K-Ras protein when both TUS-007 and MLN2238 were added ([4]; MLN2238 co-added, compared with TUS-007 alone): G12D mutant and G12V mutant K-Ras protein degradation was inhibited
- degradation (knockdown) of the G12V mutant K-Ras protein (shift of GFP/DsRed ratio graph) ([4]; vs control (DMSO)): degradation of the G12D mutant and the G12V mutant K-Ras protein was induced
- increase of the tumor volume [5]: the increase of the tumor volume was significantly suppressed (p=0.004)
